Measurements reported in patent US7008666B2, “Method of inhibiting overactivity of phagocytes or lymphocytes in an individual” (Hormos Nutraceutical Oy Ltd., priority 2001, dated 2006).

Assays:
Myeloperoxidase = molecular target: T1, Myeloperoxidase (Homo sapiens, UniProt P05164); test: Myeloperoxidase activity, tetramethylbenzidine oxidation; format: biochemical; details: human neutrophils in vitro
T1 construct: And Myeloperoxidase Activity Of Human Neutrophils In Vitro; endogenous in cells; host or cells: human neutrophils isolated from freshly drawn heparinized whole blood
T1 sequence (P05164 279-745 limits assumed): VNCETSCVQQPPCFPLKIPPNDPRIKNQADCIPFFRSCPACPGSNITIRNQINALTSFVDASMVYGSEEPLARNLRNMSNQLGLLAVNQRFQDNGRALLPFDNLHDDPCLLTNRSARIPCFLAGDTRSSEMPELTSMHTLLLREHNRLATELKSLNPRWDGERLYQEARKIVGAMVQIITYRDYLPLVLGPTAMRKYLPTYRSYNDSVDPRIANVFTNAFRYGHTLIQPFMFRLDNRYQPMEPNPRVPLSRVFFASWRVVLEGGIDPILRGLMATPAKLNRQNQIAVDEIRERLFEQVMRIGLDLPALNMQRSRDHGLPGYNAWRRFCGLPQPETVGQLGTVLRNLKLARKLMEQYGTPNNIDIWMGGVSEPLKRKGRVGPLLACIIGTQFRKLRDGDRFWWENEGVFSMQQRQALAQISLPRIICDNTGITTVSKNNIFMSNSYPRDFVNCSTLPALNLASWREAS
T1 sequence (P05164 165-273 limits assumed): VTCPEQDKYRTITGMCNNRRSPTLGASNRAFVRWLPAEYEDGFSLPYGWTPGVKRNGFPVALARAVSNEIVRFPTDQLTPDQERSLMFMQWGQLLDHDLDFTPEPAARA
Method: (§1) Isolation of neutrophils: Neutrophils were isolated from 30 mL freshly drawn heparinized whole blood, after dextran sedimentation of erythrocytes for 30 min. The leucocyte rich plasma was layered over an equal volume of Percoll (Sigma) and centrifuged at 400×g for 15 min. Erythrocytes, contaminating the neutrophil pellet, were destroyed by osmotic lysis with 0.87% NH4Cl (pH 7.0). Neutrophils were washed with PBS (pH 7.1) and centrifuged at 200×g for 10 min. Cells were resuspended in fresh HBS (containing 0.8 g NaCl, 0.4 g KCl, 0.06 g Na2HPO4×2 H2O, 0.06 g KH2PO4, 0.1 g MgSO4×7H2O and 1 g glucose in 1000 mL of distilled water; pH adjusted to 7.4 by 7% NaHCO3) and counted before use.
Myeloperoxidase activity: Myeloperoxidase activity was determined by the method of Suzuki et al. (Suzuki, K., Ota, H., Sasagawa, S., Sakatoni, T., Fujikura, T., Ann Biochem 132:345–352, 1983) in which the enzyme catalyzes the oxidation of 3,3′,5,5′-tetramethylbenzidine by H2O2 to yield a blue chromogen with a maximum wavelength of 655 nm. Studies on myeloperoxidase inhibition in vitro were performed by adding test compounds to incubation mixtures in a small volume (2% of incubation volume) of ethanol. […] Based on these experiments, a IC50-value (concentration that under these circumstances produced a 50% inhibition of myeloperoxidase activity) was determined.

[1] = tested on: Fas receptor on Jurkat cells; test: Fas receptor surface (FasR) expression, immunostaining; format: cell-based, human; details: 50 or 100 μM, versus untreated control
Method: Effect of lignans on Fas receptor surface (FasR) expression: The experiment was performed essentially as described in the literature (Brunner et al., Nature 373, 441–443, 1995). The surface expression of the FasR was measured by immunostaining alive Jurkat cells with an monoclonal anti-FasR antibody (Medical Biological Laboratories Co. Ltd, Japan, clone CH-11) and an anti-mouse antibody labelled with FITC (Alexis Biochemicals Ltd, USA) according to manufacturers instructions. The fluorescence intensity equals the amount of antibody bound to the FasR on the cell membrane.

Monocytes [2] = test: LPS-induced TNF-α production by monocytes, ELISA; format: cell-based, human; details: 100 μM, 24 h pre-incubation, LPS 1 μg/ml for 48 h; IL-10 100 U/ml
Method: Monocytes were isolated from human peripheral blood mononuclear cells by magnetic sorting. The cells were pre-incubated with the lignans matairesinol (as a reference compound) and enterolactone (1–100μM) or interleukin 10 (IL-10) (100 U/ml) for 24 hours before addition of LPS (1 μg/ml) into cell culture. After additional 48 hours the levels of TNF- from culture supernatants were measured by ELISA.

human neutrophils = test: Neutrophil oxidative burst, PMA-stimulated, lucigenin chemiluminescence; format: cell-based; details: human neutrophils in vitro, PMA stimulus
Method: as §1
Measurement of neutrophil oxidative burst: Production of reactive oxygen species by neutrophils was recorded by chemiluminescent analysis. Chemiluminescence measurements were performed with Bio-Orbit 1251 Luminometer connected to a personal computer with special programs for the assays (Bio-Orbit, Turku, Finland). The protocol for each assay included automatic pipetting of the appropriate reagent that initiated the reaction in all cuvettes. Six or twelve samples were analyzed simultaneously, depending on the assay. Disposable plastic cuvettes were used throughout.
One millilitre of cell suspension (final cell count 10^6 cells/mL) was placed in plastic cuvettes, and the level of resting chemiluminescence was recorded before addition of the stimulus; production of reactive oxygen by neutrophils (oxidative burst) was stimulated by addition of phorbol-myristate-acetate (PMA). The buffer (HBS, pH 7.4) was pipetted in a volume of 0.930 mL in the luminometer cuvette. Test compounds were added to incubation mixtures in a small volume (2% of total incubation volume) of ethanol. […] Fifty microliters of 5 mM lucigenin was added, and the reaction was initiated by 0.020 mL of 0.1 mM PMA at 37° C. The chemiluminescence was measured for about 45 min at 1 min cycles and the area under curve (integral) was calculated. […] Based on these experiments, a IC50-value (concentration that under these circumstances produced a 50% inhibition of neutrophil oxidative burst) was determined.

Monocytes [3] = details: 1200 IU per day for 8 weeks, healthy volunteers; cited from earlier work
neutrophils = details: 6.25 mg daily for 1 week; cited from earlier work
mononuclear cells = details: 6.25 mg daily for 1 week; cited from earlier work

IC50 (Myeloperoxidase) | IC50 (human neutrophils; Neutrophil) | Structure (SMILES) | Fas surface expression [1] | other results
44.5 µM | 11 µM | COc1cc(C[C@H]2COC(=O)[C@@H]2Cc2ccc(O)c(OC)c2)ccc1O [Matairesinol, matairesinol] | elevated level of Fas protein | LPS-induced TNF-α production compared with positive control IL-10 (Monocytes [2]): at least as effective
 |  | O=C1OC[C@H](Cc2cccc(O)c2)[C@H]1Cc1cccc(O)c1 [enterolactone] | elevated level of Fas protein | LPS-induced TNF-α production compared with positive control IL-10 (Monocytes [2]): at least as effective
 |  | Cc1c(C)c2c(c(C)c1O)CC[C@@](C)(CCC[C@H](C)CCC[C@H](C)CCCC(C)C)O2 [alpha-tocopherol] |  | decrease in reactive oxygen production by monocytes (Monocytes [3]): 50%–60
54 µM |  | CN(C)CCOc1ccc(/C(=C(/CCCl)c2ccccc2)c2ccc(O)cc2)cc1 [4-OH-toremifene, reference compound] |  | IC50 (human neutrophils): 1.7 µM
2.3 µM | 7.5 µM | CC(=O)C(=Cc1cc(O)c(O)c([N+](=O)[O-])c1)C(C)=O [Nitecapone, nitecapone, reference compound] |  | 
 |  | COc1ccccc1OCCNCC(O)COc1cccc2[nH]c3ccccc3c12 (stereo not shown) [carvedilol] |  | decrease of reactive oxygen production by neutrophils (neutrophils): 59%; decrease of reactive oxygen production by mononuclear cells (mononuclear cells): 62%
6.8 µM | 5.3 µM | COc1cc(CC2C(=O)OCC2C(O)c2ccc(O)c(OC)c2)ccc1O (stereo not shown) [Hydroxymatairesinol, hydroxymatairesinol] | elevated level of Fas protein | 
